Experimental findings from patent US20260115209A1, “COMBINATION THERAPY INCLUDING COX-2 INHIBITOR FOR THE TREATMENT OF CANCER” (THE REGENTS OF THE UNIVERSITY OF CALIFORNIA, priority 2022, published 2026) are described below.

For this assay, the system named is SRC. Kind of assay: High throughput kinase-activity mapping (HT-KAM) of treated cell extracts. It counts as cell-based. Conditions: WiDr cells treated 8 hours with vemurafenib ± gefitinib or cetuximab; FIG. 1B. On the procedure:
For samples to be analyzed with the HT-KAM platform, cells at ˜85% confluency were washed three times with cold PBS and lysed with freshly prepared 1× cell lysis buffer (1 ml per 2.5×10^6 cells) (lOX Cell Lysis Buffer, Cell Signaling; cat. #9803) complemented with 1× of Halt Protease & Phosphatase (100×, ThermoScientific; cat. #1861281). Cell lysates were collected and spun down at 14,000 rpm for 15 min at 4° C. and supernatants stored at −80° C. For samples to be analyzed by western blot, cell lysates were prepared with RIPA lysis buffer (150 mM NaCl, 0.1% SDS, 1% Nonidet P40, 1% sodium deoxycholate and 10 mM sodium phosphate, pH 7.2) supplemented with protease and phosphatase inhibitors. After clearing by centrifugation at 12,000 rpm for 10 minutes at 4° C., the lysates were analyzed as described in the respective experiments.
This high throughput kinase-activity mapping (HT-KAM) platform uses arrays of peptides that act as sensors of phosphorylation activity (7). The phospho-catalytic signature of samples is established from simultaneously occurring ATP-consumption tests measured in the presence of individual peptides that are experimentally isolated from each other. […] Luminescence is acquired using the Synergy 2 Multi-Mode Microplate Reader from BioTek. Luminescence data are inversely correlated with the amount of kinase activity. […]

On to `CCCS(=O)(=O)Nc1ccc(F)c(C(=O)c2c[nH]c3ncc(-c4ccc(Cl)cc4)cc23)c1F` [vemurafenib, N-[3-[5-(4-chlorophenyl)-1H-pyrrolo[2,3-b]pyridine-3-carbonyl]-2,4-difluorophenyl]propane-1-sulfonamide], for which the SRC kinase activity entry was “most significantly increased kinase activity”.
